One test concerns the target human Factor XIa (Homo sapiens (Human), UniProt P03951). The test is described as follows: Factor XIa Assay. Type of test: biochemical. The conditions noted are these: read-out: FXIa Ki. Summed up:
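Purified human FXIa (40 pM final) hydrolysing fluorogenic Z-Gly-Pro-Arg-AFC (100 μM) in 50 mM HEPES pH 7.4, 150 mM NaCl, 5 mM CaCl2, 0.1% PEG 8000, at room temperature or 37° C. Initial velocities measured after enzyme–inhibitor equilibration; Ki from Vo/Vi versus [I], assuming competitive inhibition.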

Another test addresses Human plasma kallikrein (Homo sapiens (Human), UniProt P03952). Kind of test: Kallikrein Assay. Format: biochemical. The conditions noted are these: purified Human plasma kallikrein 0.5 nM, Acetyl-K-P-R-AFC, pH 7.4; Ki from IC50 by Cheng Prusoff. The procedure: The effectiveness of a compound of the present invention as an inhibitor of Kallikrein can be determined using a relevant purified serine protease, and an appropriate synthetic substrate. The rate of hydrolysis of the chromogenic or fluorogenic substrate by the relevant serine protease was measured both in the absence and presence of compounds of the present invention. Assays were conducted at room temperature or at 37° C. […] A decrease in the rate of fluorescence change in the presence of inhibitor is indicative of enzyme inhibition. Such methods are known to one skilled in the art. The results of this assay are expressed as the inhibitory constant, Ki.
Kallikrein determinations were made in 50 mM HEPES buffer at pH 7.4 containing 150 mM NaCl, 5 mM CaCl2, and 0.1% PEG 8000 (polyethylene glycol; Fisher Scientific). Determinations were made using purified Human plasma kallikrein at a final concentration of 0.5 nM (Enzyme Research Laboratories) and the synthetic substrate, Acetyl-K-P-R-AFC (Sigma #C6608) at a concentration of […].
Times required to achieve equilibration between enzyme and inhibitor were determined in control experiments. The reactions were performed under linear progress curve conditions and fluorescence increase measured at 405 Ex/510 Em nm. […] IC50 was determined by inflection point from a four parameter logistic curve fit. Ki was calculated using the Cheng Prusoff equation, Ki=IC50/(1+([S]/Km)).

Where [1] appears, read: purified human Factor XIa 40 pM, Z-Gly-Pro-Arg-AFC 100 μM, pH 7.4.

Read-outs that look alike come from different tables or passages of the source. Where only a bound is given, the exact number is not on record here.

Human plasma kallikrein, sequence (P03952 391-638): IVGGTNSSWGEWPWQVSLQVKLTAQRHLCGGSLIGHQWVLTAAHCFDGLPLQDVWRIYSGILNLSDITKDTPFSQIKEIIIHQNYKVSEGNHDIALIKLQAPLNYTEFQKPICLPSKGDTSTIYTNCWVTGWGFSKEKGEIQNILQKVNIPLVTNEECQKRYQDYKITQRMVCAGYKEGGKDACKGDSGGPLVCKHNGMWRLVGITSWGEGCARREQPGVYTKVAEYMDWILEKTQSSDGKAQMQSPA
Human plasma kallikrein, sequence (P03952 20-390 partner): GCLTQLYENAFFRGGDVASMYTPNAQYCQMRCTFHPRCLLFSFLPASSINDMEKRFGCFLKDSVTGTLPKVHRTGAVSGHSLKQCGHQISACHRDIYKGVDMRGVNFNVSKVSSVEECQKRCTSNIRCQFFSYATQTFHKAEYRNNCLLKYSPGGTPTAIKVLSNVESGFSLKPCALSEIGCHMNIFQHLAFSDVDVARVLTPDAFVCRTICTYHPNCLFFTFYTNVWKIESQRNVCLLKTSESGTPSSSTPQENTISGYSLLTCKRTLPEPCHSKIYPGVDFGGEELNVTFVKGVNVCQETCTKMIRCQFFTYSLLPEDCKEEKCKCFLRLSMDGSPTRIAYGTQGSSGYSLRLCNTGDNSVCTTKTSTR
human Factor XIa, sequence (P03951 388-625): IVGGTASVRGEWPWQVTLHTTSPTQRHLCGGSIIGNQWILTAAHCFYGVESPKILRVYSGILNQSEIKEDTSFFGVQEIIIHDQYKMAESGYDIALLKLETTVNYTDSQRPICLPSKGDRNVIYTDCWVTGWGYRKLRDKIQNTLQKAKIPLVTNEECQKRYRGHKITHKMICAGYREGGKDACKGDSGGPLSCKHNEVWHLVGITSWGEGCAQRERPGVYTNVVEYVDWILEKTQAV
human Factor XIa, sequence (P03951 19-387 partner): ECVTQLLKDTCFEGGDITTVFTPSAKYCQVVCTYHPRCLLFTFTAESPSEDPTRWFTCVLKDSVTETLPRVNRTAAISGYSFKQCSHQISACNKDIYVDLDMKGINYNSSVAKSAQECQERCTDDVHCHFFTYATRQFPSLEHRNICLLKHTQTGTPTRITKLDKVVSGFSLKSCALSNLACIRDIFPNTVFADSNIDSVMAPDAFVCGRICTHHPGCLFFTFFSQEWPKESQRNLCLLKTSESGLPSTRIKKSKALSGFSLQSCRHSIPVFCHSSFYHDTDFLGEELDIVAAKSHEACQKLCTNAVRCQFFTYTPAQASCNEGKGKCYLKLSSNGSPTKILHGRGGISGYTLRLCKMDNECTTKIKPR

In the case of `COC(=O)Nc1ccc(C(=O)N[C@@H](Cc2ccccc2)C(=O)N2CCC[C@@]3(C2)OC(=O)Nc2ccc(C)cc23)cc1` [Example 15, methyl (4-(((S)-1-((R)-6-methyl-2-oxo-1,2-dihydrospiro[benzo[d][1,3]oxazine-4,3′-piperidin]-1′-yl)-1-oxo-3-phenylpropan-2-yl)carbamoyl)phenyl)carbamate], the Ki was determined as 5.5 nM at human Factor XIa (setting [1]) and 2.8 nM on Human plasma kallikrein. With `COC(=O)Nc1ccc(C(=O)N[C@@H](Cc2ccc(F)cn2)C(=O)N2CCC[C@@]3(C2)OC(=O)Nc2ccc(Cl)c(F)c23)cc1` [Example 74, methyl (4-(((S)-1-((R)-6-chloro-5-fluoro-2-oxo-1,2-dihydrospiro[benzo[d][1,3]oxazine-4,3′-piperidin]-1′-yl)-3-(5-fluoropyridin-2-yl)-1-oxopropan-2-yl)carbamoyl)phenyl)carbamate], the Ki came out at 2.82 nM on human Factor XIa (setting [1]) and 2.53 nM on Human plasma kallikrein. As for `Nc1noc2cc(C(=O)N[C@@H](Cc3ccccc3)C(=O)N3CC[C@@]4(C3)OC(=O)Nc3ccc(Cl)cc34)ccc12` [Example 217], the Ki at human Factor XIa was 2.3 nM; on Human plasma kallikrein, 3.2 nM.

On to `COC(=O)Nc1ccc(C(=O)N[C@@H](CC(=O)N2CC(O)(C3CC3)C2)C(=O)N2CCC[C@@]3(C2)OC(=O)Nc2ccc(Cl)cc23)cc1` [Example 100, methyl (4-(((S)-1-((R)-6-chloro-2-oxo-1,2-dihydrospiro[benzo[d][1,3]oxazine-4,3′-piperidin]-1′-yl)-4-(3-cyclopropyl-3-hydroxyazetidin-1-yl)-1,4-dioxobutan-2-yl)carbamoyl)phenyl)carbamate], for which the values for the Ki on human Factor XIa (setting [1]) and on Human plasma kallikrein were 39.9 nM and 19.7 nM, respectively. On the same counts, the results for `COC(=O)Nc1ccc(C(=O)N[C@@H](Cc2ccc(C(=O)c3ccccc3)cc2)C(=O)N2CCC3(C2)OC(=O)Nc2ccc(Cl)cc23)cc1` (stereo partly drawn) [Example 39, methyl (4-(((2S)-3-(4-benzoylphenyl)-1-(6-chloro-2-oxo-1,2-dihydrospiro[benzo[d][1,3]oxazine-4,3′-pyrrolidin]-1′-yl)-1-oxopropan-2-yl)carbamoyl)phenyl)carbamate] are 39.3 nM and 86.6 nM. `COC(=O)Nc1ccc(C(=O)N[C@@H](CC2(OC)CC2)C(=O)N2CCC[C@@]3(C2)OC(=O)Nc2ccc(Cl)c(F)c23)cc1` [Example 115, methyl (4-(((S)-1-((R)-6-chloro-5-fluoro-2-oxo-1,2-dihydrospiro[benzo[d][1,3]oxazine-4,3′-piperidin]-1′-yl)-3-(1-methoxycyclopropyl)-1-oxopropan-2-yl)carbamoyl)phenyl)carbamate]: the Ki at Human plasma kallikrein was found to be 0.6 nM. On Human plasma kallikrein, `O=C(Nc1ccc(C(=O)N[C@@H](Cc2cccc(F)c2)C(=O)N2CCC[C@@]3(C2)OC(=O)Nc2ccc(Cl)c(F)c23)cc1)OCCP(=O)(O)O` [Example 271, (2-(((4-(((S)-1-((R)-6-chloro-5-fluoro-2-oxo-1,2-dihydrospiro[benzo[d][1,3]oxazine-4,3′-piperidin]-1′-yl)-3-(3-fluorophenyl)-1-oxopropan-2-yl)carbamoyl)phenyl)carbamoyl)oxy)ethyl)phosphonic acid] gave a Ki of 0.6 nM. As to `COC(=O)Nc1ccc(C(=O)N[C@@H](C[C@H](C)OC)C(=O)N2CCC[C@@]3(C2)OC(=O)Nc2ccc(Cl)c(F)c23)cc1` [Example 118A, methyl (4-(((2S,4S)-1-((R)-6-chloro-5-fluoro-2-oxo-1,2-dihydrospiro[benzo[d][1,3]oxazine-4,3′-piperidin]-1′-yl)-4-methoxy-1-oxopentan-2-yl)carbamoyl)phenyl)carbamate], the affinity on Human plasma kallikrein, expressed as Ki, was 1.79 nM. Compound `COC(=O)Nc1ccc(C(=O)N[C@@H](C[C@@H](C)OC)C(=O)N2CCC[C@@]3(C2)OC(=O)Nc2ccc(Cl)c(F)c23)cc1` [Example 118B, methyl (4-(((2S,4R)-1-((R)-6-chloro-5-fluoro-2-oxo-1,2-dihydrospiro[benzo[d][1,3]oxazine-4,3′-piperidin]-1′-yl)-4-methoxy-1-oxopentan-2-yl)carbamoyl)phenyl)carbamate] showed a Ki on Human plasma kallikrein of 1.06 nM. For the compound `N#Cc1ccc(S(=O)(=O)N[C@@H](Cc2ccccc2)C(=O)N2CCC3(C2)OC(=O)Nc2ccc(Cl)cc23)cc1` (stereo partly drawn) [Example 280, N-((2S)-1-(6-chloro-2-oxo-1,2-dihydrospiro[benzo[d][1,3]oxazine-4,3′-pyrrolidin]-1′-yl)-1-oxo-3-phenylpropan-2-yl)-4-cyanobenzenesulfonamide], the Ki at human Factor XIa (setting [1]) came to 5000 nM. Consider `COC(=O)Nc1ccc(C(=O)N[C@@H](CCCCNC(=O)C(F)(F)F)C(=O)N2CCC[C@@]3(C2)OC(=O)Nc2ccc(Cl)cc23)cc1` [Example 54, methyl (4-(((S)-1-((R)-6-chloro-2-oxo-1,2-dihydrospiro[benzo[d][1,3]oxazine-4,3′-piperidin]-1′-yl)-1-oxo-6-(2,2,2-trifluoroacetamido)hexan-2-yl)carbamoyl)phenyl)carbamate], for which the Ki on human Factor XIa (setting [1]) was determined as 52 nM. Take `COC(=O)NC12CCC(C(=O)N[C@@H](Cc3ccccc3)C(=O)N3CCC[C@@]4(C3)OC(=O)Nc3ccc(Cl)c(F)c34)(CC1)CC2` [Example 243]: the inhibition constant (Ki) at human Factor XIa worked out at 96 nM.

For `COC(=O)Nc1ccc2[nH]c(C(Cc3ccccc3)C(=O)N3CCC[C@@]4(C3)OC(=O)Nc3ccc(Cl)c(F)c34)cc2c1` (stereo partly drawn) [Example 134, methyl (2-(1-((R)-6-chloro-5-fluoro-2-oxo-1,2-dihydrospiro[benzo[d][1,3]oxazine-4,3′-piperidin]-1′-yl)-1-oxo-3-phenylpropan-2-yl)-1H-indol-5-yl)carbamate], the Ki at human Factor XIa (setting [1]) was above 875 nM. As for `O=C1Nc2ccc(Cl)cc2C2(CCN(C(=O)[C@H](Cc3ccccc3)NC(=O)c3ccc4[nH]ncc4c3)C2)O1` (stereo partly drawn) [Example 142], the Ki on human Factor XIa stood at 48.4 nM. For `COC(=O)Nc1ccc(C(=O)N[C@@H](CC(=O)NS(=O)(=O)C2CC2)C(=O)N2CC[C@@]3(C2)OC(=O)Nc2ccc(Cl)cc23)cc1` [Example 92, methyl (4-(((S)-1-((R)-6-chloro-2-oxo-1,2-dihydrospiro[benzo[d][1,3]oxazine-4,3′-pyrrolidin]-1′-yl)-4-(cyclopropanesulfonamido)-1,4-dioxobutan-2-yl)carbamoyl)phenyl)carbamate], at human Factor XIa (setting [1]), the Ki worked out at 56.1 nM. The same measure, in the same setting: the same measure for `COC(=O)Nc1ccc2onc(N[C@@H](Cc3ccccc3)C(=O)N3CCC[C@@]4(C3)OC(=O)Nc3ccc(Cl)cc34)c2c1` [Example 138, methyl (3-(((S)-1-((R)-6-chloro-2-oxo-1,2-dihydrospiro[benzo[d][1,3]oxazine-4,3′-piperidin]-1′-yl)-1-oxo-3-phenylpropan-2-yl)amino)benzo[d]isoxazol-5-yl)carbamate]: 8750 nM; for `COC(=O)Nc1ccc(C(=O)N[C@@H](Cc2cnc3ccccc3n2)C(=O)N2CCC[C@@]3(C2)OC(=O)Nc2ccc(Cl)c(F)c23)cc1` [Example 69, methyl (4-(((S)-1-((R)-6-chloro-5-fluoro-2-oxo-1,2-dihydrospiro[benzo[d][1,3]oxazine-4,3′-piperidin]-1′-yl)-1-oxo-3-(quinoxalin-2-yl)propan-2-yl)carbamoyl)phenyl)carbamate]: 36.2 nM. As to `Cc1nccnc1C(=O)N[C@@H](Cc1ccccc1)C(=O)N1CCC2(C1)OC(=O)Nc1ccc(Cl)cc12` (stereo partly drawn) [Example 145], on human Factor XIa, the Ki worked out at 3320 nM. Regarding `COC(=O)Nc1ccc(C(=O)NC2(C(=O)N3CCC4(C3)OC(=O)Nc3ccc(Cl)cc34)Cc3ccccc3C2)cc1` (racemic) [Example 26, methyl (4-((2-(6-chloro-2-oxo-1,2-dihydrospiro[benzo[d][1,3]oxazine-4,3′-pyrrolidin]-1′-ylcarbonyl)-2,3-dihydro-1H-inden-2-yl)carbamoyl)phenyl)carbamate], on human Factor XIa (setting [1]), the Ki was at least 5000 nM. In the case of `COC(=O)Nc1ccc(-c2c[nH]c([C@@H](Cc3ccccc3)C(=O)N3CC[C@]4(C3)OC(=O)Nc3ccc(Cl)cc34)n2)cc1` [Example 122c, methyl (4-(2-((R)-1-((S)-6-chloro-2-oxo-1,2-dihydrospiro[benzo[d][1,3]oxazine-4,3′-pyrrolidin]-1′-yl)-1-oxo-3-phenylpropan-2-yl)-1H-imidazol-4-yl)phenyl)carbamate], the inhibitory constant (Ki) on human Factor XIa (setting [1]) came out at 5000 nM. In the case of `COC(=O)Nc1ccc(C(=O)N[C@@H](Cc2ccccc2)C(=O)N2CCC[C@@]3(C2)OC(=O)Nc2ccc(C4CC4)c(F)c23)cc1` [Example 17, methyl (4-(((S)-1-((R)-6-cyclopropyl-5-fluoro-2-oxo-1,2-dihydrospiro[benzo[d][1,3]oxazine-4,3′-piperidin]-1′-yl)-1-oxo-3-phenylpropan-2-yl)carbamoyl)phenyl)carbamate], the Ki at human Factor XIa (setting [1]) was found to be 37.4 nM. In the case of `O=C1Nc2ccc(Cl)cc2C2(CCN(C(=O)[C@H](Cc3ccccc3)NC(=O)C3CCC(CO)CC3)C2)O1` (stereo partly drawn) [Example 157], the Ki on human Factor XIa stood at 3350 nM.
